Results: patent US5138059A, “DC-89 compounds and process for their preparation” (priority 1988, dated 1992)
≈ marks a conversion by molar mass, not a printed value.

How the values were obtained:
Sarcoma 180 solid tumor = test: Therapeutical effect against Sarcoma 180 solid tumor; type: in vivo, ddY male mice; conditions: 10 days after implantation
Method: Six ddY male mice each weighing about 20 g were used for each group, and 5×10^6 Sarcoma 180 solid tumor cells were implanted subcutaneously into the mice at the axilla. Twenty-four hours after the implantation, 0.2 ml of a phosphate buffer saline (hereinafter referred to as PBS) containing the DC-89 compound in the concentration shown in Table 3 was intraperitoneally administered once.
The composition of PBS was 0.8 g/dl NaCl, 0.02 g/dl KCl, […] Na2 HPO4 and 0.02 g/dl KH2 PO4 (pH 7.2).
For comparison, 0.2 ml of PBS containing mitomycin C was intraperitoneally administered 24 hours after implantation of the tumor cells.
Ten days after the implantation, T/C [T: average tumor volume (mm^3) of the test groups, C: average tumor volume (mm^3) of the control group which received an intraperitoneal administration of 0.2 ml of PBS] was determined.

[1] = test system: Bacillus subtilis No. 10707; test: Antibacterial activity, agar dilution method (MIC); type: cell-based; conditions: Bacillus subtilis No. 10707, agar dilution, pH 7; read-out: Minimum inhibitory concentration (MIC)
Method: (§1) The antibacterial activity was determined by the agar dilution method using a medium (pH 7) prepared by dissolving 3 g of Bacto-tryptone (Difco Laboratories), 3 g of meat extract, 1 g of yeast extract, 1 g of glucose and 16 g of agar in 1 liter of water.

[2] = test system: Staphylococcus aureus ATCC 6538P; test: Antibacterial activity, agar dilution method (MIC); type: cell-based; conditions: ATCC6538P, pH 7, read-out: Minimum inhibitory concentration (MIC)
Method: as §1

[3] = test system: Salmonella typhi ATCC 9992; test: Antibacterial activity, agar dilution method (MIC); type: cell-based; conditions: Salmonella enterica; Salmonella typhi ATCC 9992, agar dilution, pH 7; read-out: Minimum inhibitory concentration (MIC)
Method: as §1

Escherichia coli ATCC 26 = test: Antibacterial activity, agar dilution method (MIC); type: cell-based; conditions: ATCC26; Escherichia coli ATCC 26, agar dilution, pH 7; read-out: Minimum inhibitory concentration (MIC)
Method: as §1

[4] = test system: Klebsiella pneumoniae ATCC 10031; test: Antibacterial activity, agar dilution method (MIC); type: cell-based; conditions: ATCC10031; Klebsiella pneumoniae ATCC 10031, agar dilution, pH 7; read-out: Minimum inhibitory concentration (MIC)
Method: as §1

Solubility = type: physicochemical
[5] = Acute toxicity (LD50), intraperitoneal, mice; conditions: mouse, in vivo, ip
[6] = test system: lymphocytic leukemia P388; test: Therapeutical effect against lymphocytic leukemia P388; type: in vivo, male CDF1 mice
Method: Five male CDF1 mice each weighing about 22 g were used for each group, and 1×10^6 cells of lymphocytic leukemia P388 tumor cells were implanted intraperitoneally into the mice. Twenty-four hours after the implantation, 0.2 ml of PBS containing the DC-89 compound was intraperitoneally administered once. For comparison, 0.2 ml of PBS containing mitomycin C was intraperitoneally administered 24 hours after implantation of the tumor cells. The increased life span (T/C) [T: mean survival time (days) of the test groups, C: mean survival time (days) of the control group which received an intraperitoneal administration of 0.2 ml of PBS] after the implantation is shown in Table 4.

[7] = in methanol, ethanol, ethyl acetate, acetone, chloroform and dimethylsulfoxide
[8] = 4 mg/kg, i.p. 24 h after implantation

SMILES | T/C (average tumor volume) (Sarcoma 180 solid tumor; 0.5 mg/kg, i.p. once 24 h after implantation) | MIC [1] [µg/mL] | MIC [2] [µg/mL] | MIC [3] [µg/mL] | MIC (Escherichia coli ATCC 26) [µg/mL] | MIC [4] [µg/mL] | Solubility (Solubility; [7]) | Solubility (Solubility; in water and n-hexane) | LD50 [5] [mg/kg] | Increased Life Span (T/C) (mean survival time) ([6]; 0.0156 mg/kg, i.p. once 24 h after implantation) | T/C (average tumor volume) (Sarcoma 180 solid tumor; 0.25 mg/kg, i.p. once 24 h after implantation) | Increased Life Span (T/C) (mean survival time) ([6]; 0.0781 mg/kg, i.p. once 24 h after implantation) | T/C (average tumor volume) (Sarcoma 180 solid tumor; 3 mg/kg, i.p. once 24 h after implantation) | Increased Life Span (T/C) (mean survival time) ([6]; 0.125 mg/kg, i.p. once 24 h after implantation) | T/C (average tumor volume) (Sarcoma 180 solid tumor; [8]) | Increased Life Span (T/C) (mean survival time) [6, 8]
COC(=O)C1(C)Nc2c(O)cc3c(c2C1=O)CC(Br)CN3C(=O)c1cc2cc(OC)c(OC)c(OC)c2[nH]1 (centres unmarked) [DC-89B1] | 0.22 | 0.013 (≈ 0.0221 µM) | 0.0008 (≈ 0.00136 µM) | 1.3 (≈ 2.21 µM) | 0.33 (≈ 0.561 µM) | 0.026 (≈ 0.0442 µM) | readily soluble | sparingly soluble | ~0.37 | 1.35 | – | – | – | – | – | –
COC(=O)C1(C)Nc2c(O)cc3c(c2C1=O)C(CBr)CN3C(=O)c1cc2cc(OC)c(OC)c(OC)c2[nH]1 (centres unmarked) [DC-89B2] | – | 0.0033 (≈ 0.00561 µM) | 0.0033 (≈ 0.00561 µM) | 2.6 (≈ 4.42 µM) | 1.3 (≈ 2.21 µM) | 0.1 (≈ 0.17 µM) | readily soluble | sparingly soluble | ~0.28 | – | 0.28 | 1.19 | – | – | – | –
COC(=O)C1(C)Nc2c(O)cc3c(c2C1=O)C(CCl)CN3C(=O)c1cc2cc(OC)c(OC)c(OC)c2[nH]1 (centres unmarked) [DC-89A2] | – | 0.0065 (≈ 0.0119 µM) | 0.052 (≈ 0.0956 µM) | 10.4 (≈ 19.1 µM) | 5.2 (≈ 9.56 µM) | 0.42 (≈ 0.772 µM) | readily soluble | sparingly soluble | ~3.83 | – | – | – | 0.19 | 1.35 | – | –
CO[C@@]12[C@H](COC(N)=O)C3=C(C(=O)C(C)=C(N)C3=O)N1C[C@@H]1N[C@@H]12 [Mitomycin C, mitomycin C, reference compound] | – | – | – | – | – | – | – | – | – | – | – | – | – | – | 0.30 | 1.66
